Laboratory results: patent publication US7250442B2, “Dihydroindol-2-one derivatives as steroid hormone nuclear receptor modulators” (Eli Lilly and Company, priority 2003, dated 2007)
pKi: −log10 of the molar value.

Target: T1, human MR (Homo sapiens, UniProt P08235)
T1 construct: The full length human MR gene is cloned from a human kidney or human brain cDNA library; made in house; host or cells: Sf9 insect cells (baculovirus, pAcHLT transfer vector)
T1 sequence (P08235 1-984): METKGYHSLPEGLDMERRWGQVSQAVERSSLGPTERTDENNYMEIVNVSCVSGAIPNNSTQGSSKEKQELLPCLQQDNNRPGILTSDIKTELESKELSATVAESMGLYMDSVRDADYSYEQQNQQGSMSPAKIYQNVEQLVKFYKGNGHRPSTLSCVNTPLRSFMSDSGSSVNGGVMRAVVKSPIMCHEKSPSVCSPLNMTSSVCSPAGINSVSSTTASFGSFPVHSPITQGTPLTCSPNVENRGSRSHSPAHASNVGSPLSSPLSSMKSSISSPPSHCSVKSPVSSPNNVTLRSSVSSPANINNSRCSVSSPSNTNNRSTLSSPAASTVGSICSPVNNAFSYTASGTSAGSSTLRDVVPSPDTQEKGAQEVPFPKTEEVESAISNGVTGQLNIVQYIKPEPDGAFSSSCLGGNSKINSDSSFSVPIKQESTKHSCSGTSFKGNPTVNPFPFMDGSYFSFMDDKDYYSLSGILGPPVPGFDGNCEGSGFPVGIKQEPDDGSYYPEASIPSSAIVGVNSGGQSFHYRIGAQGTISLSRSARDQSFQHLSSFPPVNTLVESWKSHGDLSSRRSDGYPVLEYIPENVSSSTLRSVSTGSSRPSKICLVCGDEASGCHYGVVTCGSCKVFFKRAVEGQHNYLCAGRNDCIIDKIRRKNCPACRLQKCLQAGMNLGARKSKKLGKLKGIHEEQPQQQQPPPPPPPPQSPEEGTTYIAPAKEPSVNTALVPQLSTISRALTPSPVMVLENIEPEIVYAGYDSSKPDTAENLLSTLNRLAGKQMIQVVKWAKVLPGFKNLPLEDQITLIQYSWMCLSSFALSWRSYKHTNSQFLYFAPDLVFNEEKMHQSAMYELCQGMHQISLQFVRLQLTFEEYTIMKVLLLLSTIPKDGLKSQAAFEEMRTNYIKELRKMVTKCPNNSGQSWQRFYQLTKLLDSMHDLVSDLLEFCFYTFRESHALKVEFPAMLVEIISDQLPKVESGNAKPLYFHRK
Test: Mineralocorticoid Receptor Binding Assay ([3H]-aldosterone displacement)
Conditions: full length human MR expressed in Sf9 cells, 0.5 nM [3H]-aldosterone
Procedure, shortened: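 Full-length human MR expressed in Sf9 cells; lysate (20-25 μg protein) incubated with 0.5 nM [3H]-aldosterone and test compound in molybdate/Tris/phosphate/glycerol buffer pH 7.5, 16 h at 4 °C. Bound ligand measured by filtration and scintillation counting; IC50 converted to Ki via Cheng-Prusoff.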

| pKi | Compound |
| --- | --- |
| ≥ 6.30 | COc1ccc2c(c1)C(c1cc(C)c(O)c(C)c1)(c1cc(C)c(O)c(C)c1)C(=O)N2Cc1ccccc1 [Example 16, 1-Benzyl-3,3-bis-(4-hydroxy-3,5-dimethyl-phenyl)-5-methoxy-1,3-dihydro-indol-2-one] |
| ≥ 6.30 | Cc1cc(C2(c3cc(C)c(O)c(C)c3)C(=O)N(Cc3ccc(F)cc3)c3ccccc32)cc(C)c1O [Example 2] |
